Laboratory results published in ChEMBL document CHEMBL5724914, “Linking interpersonal differences in gut microbiota composition and drug biotransformation activity” (2024).

Assay: (§1) The drug is tested on WLS-039 corresponding to human gut metagenome with ENA study accession number: PRJEB37062 and ENA sample accession number: ERS12561746 for biotransformation under anaerobic condition. The drug concentrations were measured over 9 timepoints collected between 0 and 24 hours of incubation by liquid-chromatography-coupled mass spectrometry (LC–MS)
Details: 2 µM
Note: call rule not given here.

Bacterial Biotransformation | Compound
Compound metabolized | Clc1ccc(Cn2c(CN3CCCC3)nc3ccccc32)cc1 [CLEMIZOLE]
Compound NOT metabolized | CN1C(C(=O)Nc2ccccn2)=C(O)c2sccc2S1(=O)=O [TENOXICAM]
Compound metabolized | NC(CO)(CO)CO.O=C(c1ccccc1)c1ccc2n1CCC2C(=O)O (stereo not given) [KETOROLAC TROMETHAMINE]

Compound | Bacterial Biotransformation
COc1cc2c(c(OC)c1OC)-c1ccc(OC)c(=O)cc1[C@@H](NC(C)=O)CC2 [COLCHICINE] | Compound metabolized

Assay: as §1, with “WLS-010” for “WLS-039”, “ERS12561743” for “ERS12561746”
Details: 2 µM

Bacterial Biotransformation | Compound
Compound NOT metabolized | Clc1ccc(Cn2c(CN3CCCC3)nc3ccccc32)cc1 [CLEMIZOLE]
Compound NOT metabolized | CN1C(C(=O)Nc2ccccn2)=C(O)c2sccc2S1(=O)=O [TENOXICAM]
Compound metabolized | NC(CO)(CO)CO.O=C(c1ccccc1)c1ccc2n1CCC2C(=O)O (stereo not given) [KETOROLAC TROMETHAMINE]

Compound | Bacterial Biotransformation
COc1cc2c(c(OC)c1OC)-c1ccc(OC)c(=O)cc1[C@@H](NC(C)=O)CC2 [COLCHICINE] | Compound metabolized

Assay: as §1, with “WLS-027” for “WLS-039”, “ERS12561744” for “ERS12561746”
Details: 2 µM

Bacterial Biotransformation | Compound
Compound metabolized | Clc1ccc(Cn2c(CN3CCCC3)nc3ccccc32)cc1 [CLEMIZOLE]
Compound NOT metabolized | CN1C(C(=O)Nc2ccccn2)=C(O)c2sccc2S1(=O)=O [TENOXICAM]
Compound metabolized | NC(CO)(CO)CO.O=C(c1ccccc1)c1ccc2n1CCC2C(=O)O (stereo not given) [KETOROLAC TROMETHAMINE]

Compound | Bacterial Biotransformation
COc1cc2c(c(OC)c1OC)-c1ccc(OC)c(=O)cc1[C@@H](NC(C)=O)CC2 [COLCHICINE] | Compound NOT metabolized

Assay: as §1, with “WLS-170” for “WLS-039”, “ERS12561762” for “ERS12561746”
Details: 2 µM

Bacterial Biotransformation | Compound
Compound metabolized | Clc1ccc(Cn2c(CN3CCCC3)nc3ccccc32)cc1 [CLEMIZOLE]
Compound NOT metabolized | CN1C(C(=O)Nc2ccccn2)=C(O)c2sccc2S1(=O)=O [TENOXICAM]
Compound metabolized | NC(CO)(CO)CO.O=C(c1ccccc1)c1ccc2n1CCC2C(=O)O (stereo not given) [KETOROLAC TROMETHAMINE]

Compound | Bacterial Biotransformation
COc1cc2c(c(OC)c1OC)-c1ccc(OC)c(=O)cc1[C@@H](NC(C)=O)CC2 [COLCHICINE] | Compound metabolized

Details: human gut metagenome, 24 h, 2 µM

Bacterial Biotransformation | Compound
Compound NOT metabolized | Clc1ccc(Cn2c(CN3CCCC3)nc3ccccc32)cc1 [CLEMIZOLE]
Compound NOT metabolized | CN1C(C(=O)Nc2ccccn2)=C(O)c2sccc2S1(=O)=O [TENOXICAM]
Compound metabolized | NC(CO)(CO)CO.O=C(c1ccccc1)c1ccc2n1CCC2C(=O)O (stereo not given) [KETOROLAC TROMETHAMINE]

Compound | Bacterial Biotransformation
COc1cc2c(c(OC)c1OC)-c1ccc(OC)c(=O)cc1[C@@H](NC(C)=O)CC2 [COLCHICINE] | Compound metabolized

Details: human gut metagenome, 24 h, 2 µM
Remark: another data set of the same source

Bacterial Biotransformation | Compound
Compound metabolized | Clc1ccc(Cn2c(CN3CCCC3)nc3ccccc32)cc1 [CLEMIZOLE]
Compound NOT metabolized | CN1C(C(=O)Nc2ccccn2)=C(O)c2sccc2S1(=O)=O [TENOXICAM]
Compound metabolized | NC(CO)(CO)CO.O=C(c1ccccc1)c1ccc2n1CCC2C(=O)O (stereo not given) [KETOROLAC TROMETHAMINE]

Compound | Bacterial Biotransformation
COc1cc2c(c(OC)c1OC)-c1ccc(OC)c(=O)cc1[C@@H](NC(C)=O)CC2 [COLCHICINE] | Compound metabolized

Assay: as §1, with “Z-011” for “WLS-039”, “mouse” for “human”, “ERS12561811” for “ERS12561746”
Details: 2 µM

Bacterial Biotransformation | Compound
Compound NOT metabolized | Clc1ccc(Cn2c(CN3CCCC3)nc3ccccc32)cc1 [CLEMIZOLE]
Compound NOT metabolized | CN1C(C(=O)Nc2ccccn2)=C(O)c2sccc2S1(=O)=O [TENOXICAM]
Compound NOT metabolized | NC(CO)(CO)CO.O=C(c1ccccc1)c1ccc2n1CCC2C(=O)O (stereo not given) [KETOROLAC TROMETHAMINE]

Compound | Bacterial Biotransformation
COc1cc2c(c(OC)c1OC)-c1ccc(OC)c(=O)cc1[C@@H](NC(C)=O)CC2 [COLCHICINE] | Compound NOT metabolized

Assay: as §1, with “Z-010” for “WLS-039”, “to” for “to human gut”, “ERS12561810” for “ERS12561746”
Details: 2 µM

Bacterial Biotransformation | Compound
Compound metabolized | Clc1ccc(Cn2c(CN3CCCC3)nc3ccccc32)cc1 [CLEMIZOLE]
Compound NOT metabolized | CN1C(C(=O)Nc2ccccn2)=C(O)c2sccc2S1(=O)=O [TENOXICAM]
Compound metabolized | NC(CO)(CO)CO.O=C(c1ccccc1)c1ccc2n1CCC2C(=O)O (stereo not given) [KETOROLAC TROMETHAMINE]

Compound | Bacterial Biotransformation
COc1cc2c(c(OC)c1OC)-c1ccc(OC)c(=O)cc1[C@@H](NC(C)=O)CC2 [COLCHICINE] | Compound metabolized

Assay: as §1, with “Z-026” for “WLS-039”, “to” for “to human gut”, “ERS12561825” for “ERS12561746”
Details: 2 µM

Bacterial Biotransformation | Compound
Compound NOT metabolized | Clc1ccc(Cn2c(CN3CCCC3)nc3ccccc32)cc1 [CLEMIZOLE]
Compound NOT metabolized | CN1C(C(=O)Nc2ccccn2)=C(O)c2sccc2S1(=O)=O [TENOXICAM]
Compound NOT metabolized | NC(CO)(CO)CO.O=C(c1ccccc1)c1ccc2n1CCC2C(=O)O (stereo not given) [KETOROLAC TROMETHAMINE]

Compound | Bacterial Biotransformation
COc1cc2c(c(OC)c1OC)-c1ccc(OC)c(=O)cc1[C@@H](NC(C)=O)CC2 [COLCHICINE] | Compound NOT metabolized

Details: human gut metagenome, 24 h, 2 µM
Remark: another data set of the same source

Bacterial Biotransformation | Compound
Compound metabolized | Clc1ccc(Cn2c(CN3CCCC3)nc3ccccc32)cc1 [CLEMIZOLE]
Compound NOT metabolized | CN1C(C(=O)Nc2ccccn2)=C(O)c2sccc2S1(=O)=O [TENOXICAM]
Compound metabolized | NC(CO)(CO)CO.O=C(c1ccccc1)c1ccc2n1CCC2C(=O)O (stereo not given) [KETOROLAC TROMETHAMINE]

Compound | Bacterial Biotransformation
COc1cc2c(c(OC)c1OC)-c1ccc(OC)c(=O)cc1[C@@H](NC(C)=O)CC2 [COLCHICINE] | Compound metabolized

Assay: as §1, with “WLS-007” for “WLS-039”, “ERS12561742” for “ERS12561746”
Details: 2 µM

Bacterial Biotransformation | Compound
Compound metabolized | Clc1ccc(Cn2c(CN3CCCC3)nc3ccccc32)cc1 [CLEMIZOLE]
Compound NOT metabolized | CN1C(C(=O)Nc2ccccn2)=C(O)c2sccc2S1(=O)=O [TENOXICAM]
Compound metabolized | NC(CO)(CO)CO.O=C(c1ccccc1)c1ccc2n1CCC2C(=O)O (stereo not given) [KETOROLAC TROMETHAMINE]

Compound | Bacterial Biotransformation
COc1cc2c(c(OC)c1OC)-c1ccc(OC)c(=O)cc1[C@@H](NC(C)=O)CC2 [COLCHICINE] | Compound metabolized

Assay: as §1, with “WLS-240” for “WLS-039”, “ERS12561773” for “ERS12561746”
Details: 2 µM

Bacterial Biotransformation | Compound
Compound metabolized | Clc1ccc(Cn2c(CN3CCCC3)nc3ccccc32)cc1 [CLEMIZOLE]
Compound NOT metabolized | CN1C(C(=O)Nc2ccccn2)=C(O)c2sccc2S1(=O)=O [TENOXICAM]
Compound metabolized | NC(CO)(CO)CO.O=C(c1ccccc1)c1ccc2n1CCC2C(=O)O (stereo not given) [KETOROLAC TROMETHAMINE]

Compound | Bacterial Biotransformation
COc1cc2c(c(OC)c1OC)-c1ccc(OC)c(=O)cc1[C@@H](NC(C)=O)CC2 [COLCHICINE] | Compound metabolized

Assay: as §1, with “WLS-098” for “WLS-039”, “ERS12561754” for “ERS12561746”
Details: 2 µM

Bacterial Biotransformation | Compound
Compound metabolized | Clc1ccc(Cn2c(CN3CCCC3)nc3ccccc32)cc1 [CLEMIZOLE]
Compound NOT metabolized | CN1C(C(=O)Nc2ccccn2)=C(O)c2sccc2S1(=O)=O [TENOXICAM]
Compound metabolized | NC(CO)(CO)CO.O=C(c1ccccc1)c1ccc2n1CCC2C(=O)O (stereo not given) [KETOROLAC TROMETHAMINE]

Compound | Bacterial Biotransformation
COc1cc2c(c(OC)c1OC)-c1ccc(OC)c(=O)cc1[C@@H](NC(C)=O)CC2 [COLCHICINE] | Compound NOT metabolized

Details: human gut metagenome, 24 h, 2 µM
Remark: another data set of the same source

Bacterial Biotransformation | Compound
Compound NOT metabolized | Clc1ccc(Cn2c(CN3CCCC3)nc3ccccc32)cc1 [CLEMIZOLE]
Compound NOT metabolized | CN1C(C(=O)Nc2ccccn2)=C(O)c2sccc2S1(=O)=O [TENOXICAM]
Compound NOT metabolized | NC(CO)(CO)CO.O=C(c1ccccc1)c1ccc2n1CCC2C(=O)O (stereo not given) [KETOROLAC TROMETHAMINE]

Compound | Bacterial Biotransformation
COc1cc2c(c(OC)c1OC)-c1ccc(OC)c(=O)cc1[C@@H](NC(C)=O)CC2 [COLCHICINE] | Compound NOT metabolized

Details: human gut metagenome, 24 h, 2 µM
Remark: another data set of the same source

Bacterial Biotransformation | Compound
Compound NOT metabolized | Clc1ccc(Cn2c(CN3CCCC3)nc3ccccc32)cc1 [CLEMIZOLE]
Compound NOT metabolized | CN1C(C(=O)Nc2ccccn2)=C(O)c2sccc2S1(=O)=O [TENOXICAM]
Compound metabolized | NC(CO)(CO)CO.O=C(c1ccccc1)c1ccc2n1CCC2C(=O)O (stereo not given) [KETOROLAC TROMETHAMINE]

Compound | Bacterial Biotransformation
COc1cc2c(c(OC)c1OC)-c1ccc(OC)c(=O)cc1[C@@H](NC(C)=O)CC2 [COLCHICINE] | Compound metabolized

Details: human gut metagenome, 24 h, 2 µM
Remark: another data set of the same source

Bacterial Biotransformation | Compound
Compound metabolized | Clc1ccc(Cn2c(CN3CCCC3)nc3ccccc32)cc1 [CLEMIZOLE]
Compound NOT metabolized | CN1C(C(=O)Nc2ccccn2)=C(O)c2sccc2S1(=O)=O [TENOXICAM]
Compound metabolized | NC(CO)(CO)CO.O=C(c1ccccc1)c1ccc2n1CCC2C(=O)O (stereo not given) [KETOROLAC TROMETHAMINE]

Compound | Bacterial Biotransformation
COc1cc2c(c(OC)c1OC)-c1ccc(OC)c(=O)cc1[C@@H](NC(C)=O)CC2 [COLCHICINE] | Compound NOT metabolized

Assay: as §1, with “WLS-038” for “WLS-039”, “ERS12561745” for “ERS12561746”
Details: 2 µM

Bacterial Biotransformation | Compound
Compound metabolized | Clc1ccc(Cn2c(CN3CCCC3)nc3ccccc32)cc1 [CLEMIZOLE]
Compound NOT metabolized | CN1C(C(=O)Nc2ccccn2)=C(O)c2sccc2S1(=O)=O [TENOXICAM]
Compound metabolized | NC(CO)(CO)CO.O=C(c1ccccc1)c1ccc2n1CCC2C(=O)O (stereo not given) [KETOROLAC TROMETHAMINE]

Compound | Bacterial Biotransformation
COc1cc2c(c(OC)c1OC)-c1ccc(OC)c(=O)cc1[C@@H](NC(C)=O)CC2 [COLCHICINE] | Compound NOT metabolized

Assay: as §1, with “Z-012” for “WLS-039”, “to” for “to human gut”, “ERS12561812” for “ERS12561746”
Details: 2 µM

Bacterial Biotransformation | Compound
Compound NOT metabolized | Clc1ccc(Cn2c(CN3CCCC3)nc3ccccc32)cc1 [CLEMIZOLE]
Compound NOT metabolized | CN1C(C(=O)Nc2ccccn2)=C(O)c2sccc2S1(=O)=O [TENOXICAM]
Compound NOT metabolized | NC(CO)(CO)CO.O=C(c1ccccc1)c1ccc2n1CCC2C(=O)O (stereo not given) [KETOROLAC TROMETHAMINE]

Compound | Bacterial Biotransformation
COc1cc2c(c(OC)c1OC)-c1ccc(OC)c(=O)cc1[C@@H](NC(C)=O)CC2 [COLCHICINE] | Compound NOT metabolized

Details: human gut metagenome, 24 h, 2 µM
Remark: another data set of the same source

Bacterial Biotransformation | Compound
Compound NOT metabolized | Clc1ccc(Cn2c(CN3CCCC3)nc3ccccc32)cc1 [CLEMIZOLE]
Compound NOT metabolized | CN1C(C(=O)Nc2ccccn2)=C(O)c2sccc2S1(=O)=O [TENOXICAM]
Compound metabolized | NC(CO)(CO)CO.O=C(c1ccccc1)c1ccc2n1CCC2C(=O)O (stereo not given) [KETOROLAC TROMETHAMINE]

Compound | Bacterial Biotransformation
COc1cc2c(c(OC)c1OC)-c1ccc(OC)c(=O)cc1[C@@H](NC(C)=O)CC2 [COLCHICINE] | Compound NOT metabolized

Assay: as §1, with “Z-002” for “WLS-039”, “rabbit” for “human”, “ERS12561802” for “ERS12561746”
Details: 2 µM

Bacterial Biotransformation | Compound
Compound metabolized | Clc1ccc(Cn2c(CN3CCCC3)nc3ccccc32)cc1 [CLEMIZOLE]
Compound NOT metabolized | CN1C(C(=O)Nc2ccccn2)=C(O)c2sccc2S1(=O)=O [TENOXICAM]
Compound metabolized | NC(CO)(CO)CO.O=C(c1ccccc1)c1ccc2n1CCC2C(=O)O (stereo not given) [KETOROLAC TROMETHAMINE]

Compound | Bacterial Biotransformation
COc1cc2c(c(OC)c1OC)-c1ccc(OC)c(=O)cc1[C@@H](NC(C)=O)CC2 [COLCHICINE] | Compound metabolized
